Counter-ions that a name gives are not always drawn.
Legend:
[1] = In vitro Colonic Material Stability Assay; format: in vitro ADME; conditions: colonic material slurry in YCFAC media, anaerobic, 1 or 10 μM
Method: Assay 3. In vitro Colonic Material Stability Assay. This assay was used to assess the stability of a conjugate in a large intestine. All experiments were performed in an anaerobic chamber containing 90% nitrogen, 5% hydrogen and 5% carbon dioxide. Colonic material was resuspended as a slurry (15% w/v final concentration) in pre-reduced, anaerobically sterilized dilution blanks (Anaerobe Systems AS-908). The colonic material was then inoculated into 96 well plates containing YCFAC media (Anaerobe Systems AS-680) or other suitable media (6.7 μL slurry into 1 mL total media). Compounds or groups of compounds were added to each individual well to reach a final analyte concentration of 1 or 10 μM, and the material was mixed by pipetting. Sample was removed after set timepoints (0, 120, 240, 480, 1440, 2880 minutes after initiation of the assay), quenched with acetonitrile containing internal standard, and analyzed by LC/MS.

[2] = system: experimental autoimmune encephalomyelitis (EAE); experiment: In Vivo EAE Model of Multiple Sclerosis; set-up: species or system C57BL/6J mice; conditions: Study 2, oral, amount approximately equimolar to 100 mg/kg DMF, 28 days
Method: For experimental autoimmune encephalomyelitis (EAE) study, 8- to 11-week-old C57BL/6J mice were anesthetized and subcutaneously injected with […] and […]. Pertussis toxin (200 ng/mouse) was applied i.p. on days 0. Daily clinical evaluation was performed via a 5-point scale, and the clinical progression was observed over 28 days (FIG. 2A). […] At the end of the study, flow cytometry analysis was performed on the spleen (n=8 per group). […] Statistical analysis was performed with GraphPad Prism (GraphPad Software). Unpaired t test was used to assess significance between the control (Vehicle) and each treatment group. For experimental autoimmune encephalomyelitis (EAE) studies, 8- to 11-week old C57BL/6J mice were anesthetized and subcutaneously injected with […] and […]. Pertussis toxin (200 ng/mouse) was applied intraperitoneally on day 0. Daily clinical evaluation as performed using a 5-point scale and the clinical progression was observed over 28 days (FIGS. 2C and 2D).

[3] = Stability of conjugates in Simulated Gastric Fluid (SGF); format: in vitro ADME; conditions: SGF pH 1.6 with pepsin, 37° C., 1 μM compound
How it was run: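 Compound at 1 μM (from 1 mM DMSO stock) in pH 1.6 NaCl medium with FaSSIF powder and 0.1 mg/mL pepsin, mixed at 37° C. Aliquots quenched with equal volume acetonitrile at T0 and regular intervals; LC/MS gives degradation rate.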

[4] = Stability of conjugates in Simulated Intestinal Fluid (SIF); format: in vitro ADME; conditions: SIF pH 6.7 with pancreatin, 37° C., 1 μM compound
How it was run: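 Compounds at 1 μM in fresh simulated intestinal fluid: FaSSIF powder in pH 6.7 phosphate buffer with pancreatin. Agitated at 37 °C; aliquots taken at T0 and regular intervals, quenched with 1 volume acetonitrile. Degradation rates determined by LC/MS.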

[5] = Gastrointestinal (GI) Exposure to Propionate (Study 1); format: in vivo, CD-1 mice; conditions: mouse; for Propionate-d3 AUClast / Propionate-d3 Tmax: single oral dose: Propionate-d3 62 mg/kg, Compound 3-d12 110 mg/kg, Compound 6-d9 91 mg/kg
Method: (§1) In order to measure propionate concentrations along the GI track, CD-1 mice were orally administered a single dose of deuterated sodium propionate, Compound 3 comprising deuterated propionate, or Compound 6 comprising deuterated propionate (Propionate-d3, Compound 3-d12, and Compound 6-d9, respectively; suspension, 1% (w/v) methyl cellulose in deionized water). The amounts of compound dosed were normalized to provide approximately equimolar amounts of […] (Propionate-d3 at 62 mg/kg, Compound 3-d12 at 110 mg/kg, and Compound 6-d9 at 91 mg/kg). […] Blood samples were collected in K2EDTA tubes and stored on wet ice no more than 30 min and then further processed to plasma. GI samples were placed into separate labeled, pre-weighted collection tubes and frozen before analysis. Brain samples were homogenized prior to analysis. Samples were subsequently worked up and analyzed by LC-MS/MS for deuterated propionate concentration. Propionate concentrations versus time for different tissues are depicted in FIGS. 4A-4H and 5A-5C.

[6] = Gastrointestinal (GI) Exposure to Monomethylfumarate (MMF) (Study 2); format: in vivo, CD-1 mice; conditions: mouse, samples of Study 1, single oral dose
Method: as §1
Samples from Example 6, Study 1 were also analyzed by LC-MS/MS for monomethylfumarate concentrations. MMF concentrations versus time for different tissues are depicted in FIGS. 6A-6F.

IL-8 = experiment: Neutrophil Chemokine Production Assay: IL-8; format: cell-based; conditions: human neutrophils, 12 h
Method: (§2) A volume 25 mL of human blood was layered over 15 mL of Histopaque®-1077 and centrifuged at 500 g, R^T, for 30 min with no break applied to the centrifuge. The PBMC band and Histopaque®-1077 layer were removed leaving behind the bottom red layer which was mixed with 40 mL of 1× red blood cell (RBC) lysis buffer (Sigma-Aldrich) was and split into two 50 mL tubes. The volume for both fractions was brought to 50 mL with RBC lysis buffer, mixed by inversion, and then incubated at RT for 10 min. Solutions were centrifuged at 250 g, for 10 min at RT and the supernatant liquids removed. The reddish pellets were re-suspended in 1 mL of RBC lysis buffer and combined. The cell suspension was incubated for 5 min at RT in RBC lysis buffer. After incubation 45 mL of Hanks Balanced Salt Solution with no calcium, magnesium or phenol red (HBSS—) was added, the cell suspension was spun (250 g for 10 min at RT), and supernatant liquids were removed. The white pellet was re-suspended in 1 mL of HBSS—, and cell counts were determined. The neutrophil cell suspension was brought to a concentration of 1.11e6 cells/mL in RPMI complete (Sigma-Aldrich), and 180 μL of cell suspension was transferred to all wells within a sterile 96-well tissue culture treated plate resulting in 2.0×10^5 cells/well. […] After incubation, 10 μL of 2 μg/mL LPS solution in RPMI complete was added to each well except for control wells, which received an additional 10 μL of media. Cells were incubated for 12 h (37° C., 5% CO2), after which plates were centrifuged at 250 g, RT, for 5 min and supernatant liquids were obtained and stored at −80° C. until analyzed via Luminex® Multiplex Assay for various chemokines and cytokines. Three data points were acquired from two different blood donors and averaged.

MIP-1β = experiment: Neutrophil Chemokine Production Assay: MIP-1β; format: cell-based; conditions: human neutrophils, 12 h
Method: as §2

MIP-1α = experiment: Neutrophil Chemokine Production Assay: MIP-1α; format: cell-based; conditions: human neutrophils, 12 h
Method: as §2

## CCC(=O)O[C@H]1[C@H](OC(=O)CC)[C@H](OC(=O)/C=C/C(=O)OC)O[C@@H](C)[C@H]1OC(=O)CC [Compound 1, Methyl ((2S,3S,4R,5R,6S)-6-methyl-3,4,5-tris(propionyloxy)tetrahydro-2H-pyran-2-yl) fumarate]
[1]
  Assay 3 (% Remaining at 24 h): C (C: >75% of the tested compound remaining)
[2]
  EAE score (5-point scale) compared to control (vehicle only): lower EAE scores
[3]
  Assay 1 (SGF) (% Remaining @ 1 hour): C (C: >75% of the tested compound remaining)

## CCC(=O)OC[C@H]1O[C@@H](OC(=O)/C=C/C(=O)OC)[C@H](OC(=O)CC)[C@@H](OC(=O)CC)[C@@H]1OC(=O)CC [Compound 3, Methyl ((2S,3R,4S,5R,6R)-3,4,5-tris(propionyloxy)-6-((propionyloxy)methyl)tetrahydro-2H-pyran-2-yl) fumarate]
[4]
  Assay 2 (SIF) (% @ Remaining 4 hours): B (B: 25-75% of the tested compound remaining)
[1]
  Assay 3 (% Remaining at 24 h): C (C: >75% of the tested compound remaining)
[2]
  EAE score (5-point scale) compared to control (vehicle only): lower EAE scores
  EAE score (5-point scale) compared to mice treated with dimethyl fumarate: lower or similar EAE scores
[3]
  Assay 1 (SGF) (% Remaining @ 1 hour): C (C: >75% of the tested compound remaining)

## [2H]C([2H])([2H])CC(=O)OCC1OC(OC(=O)C=CC(=O)OC)C(OC(=O)CC([2H])([2H])[2H])C(OC(=O)CC([2H])([2H])[2H])C1OC(=O)CC([2H])([2H])[2H] (stereo not drawn) [Compound 3-d12]
[5]; Brain
  Propionate-d3 AUClast: 1.18 nmol·h/g
  Propionate-d3 Tmax: 0.25 h
[5]; Cecum
  Propionate-d3 AUClast: 4010 nmol·h/g
  Propionate-d3 Tmax: 2.00 h
[5]; Distal Colon
  Propionate-d3 AUClast: 2310 nmol·h/g
  Propionate-d3 Tmax: 4.00 h
[5]; Distal Intestine
  Propionate-d3 AUClast: 3880 nmol·h/g
  Propionate-d3 Tmax: 1.00 h
[5]; Proximal Colon
  Propionate-d3 AUClast: 2910 nmol·h/g
  Propionate-d3 Tmax: 2.00 h
[5]; Proximal Intestine
  Propionate-d3 AUClast: 3160 nmol·h/g
  Propionate-d3 Tmax: 0.25 h
[5]; Stomach
  Propionate-d3 AUClast: 4950 nmol·h/g
  Propionate-d3 Tmax: 1.00 h
[5]; single oral dose, GI tissues
  region where the highest concentrations (Cmax) of propionate-d3 were observed: intestines (proximal and distal)
[6]; Cecum
  MMF AUClast: 297 nmol·h/g
  MMF Tmax: 2.00 h
[6]; Distal Colon
  MMF AUClast: 568 nmol·h/g
  MMF Tmax: 4.00 h
[6]; Distal Intestine
  MMF AUClast: 156 nmol·h/g
  MMF Tmax: 1.00 h
[6]; Proximal Colon
  MMF AUClast: 465 nmol·h/g
  MMF Tmax: 2.00 h
[6]; Proximal Intestine
  MMF AUClast: 56.4 nmol·h/g
  MMF Tmax: 0.50 h
[6]; Stomach
  MMF AUClast: 3180 nmol·h/g
  MMF Tmax: 1.00 h

## CCCC(=O)O[C@@H]1[C@@H](OC(=O)CCC)[C@H](C)O[C@@H](OC(=O)/C=C/C(=O)OC)[C@@H]1OC(=O)CCC [Compound 15, Methyl ((2S,3R,4R,5S,6S)-3,4,5-tris(butyryloxy)-6-methyltetrahydro-2H-pyran-2-yl) fumarate]
[4]
  Assay 2 (SIF) (% @ Remaining 4 hours): A (A: <25% of the tested compound remaining)
[1]
  Assay 3 (% Remaining at 24 h): C (C: >75% of the tested compound remaining)
[2]
  EAE score (5-point scale) compared to control (vehicle only): lower EAE scores
[3]
  Assay 1 (SGF) (% Remaining @ 1 hour): B (B: 25-75% of the tested compound remaining)

## CCCC(=O)O[C@H]1[C@H](OC(=O)/C=C/C(=O)OC)OC[C@@H](OC(=O)CCC)[C@H]1OC(=O)CCC [Compound 24, Methyl ((2S,3R,4R,5R)-3,4,5-tris(butyryloxy)tetrahydro-2H-pyran-2-yl) fumarate]
[4]
  Assay 2 (SIF) (% @ Remaining 4 hours): A (A: <25% of the tested compound remaining)
[2]
  EAE score (5-point scale) compared to control (vehicle only): lower EAE scores
[3]
  Assay 1 (SGF) (% Remaining @ 1 hour): C (C: >75% of the tested compound remaining)

## CC(O)CC(=O)O (stereo not drawn) [β-hydroxybutyric acid]
IL-8; Conc. 200.0 μM
  % IL-8 (Vehicle + LPS = 100%): − (− = >90% Vehicle)
IL-8; Conc. 2000.0 μM
  % IL-8 (Vehicle + LPS = 100%): + (+ = <90% Vehicle)
MIP-1β; Conc. 200.0 μM
  % MIP-1β (DMSO + LPS = 100%): + (+ = <90% Vehicle)
MIP-1β; Conc. 2000.0 μM
  % MIP-1β (DMSO + LPS = 100%): + (+ = <90% Vehicle)
MIP-1α; Conc. 200.0 μM
  % MIP-1α (Vehicle + LPS = 100%): − (− = >90% Vehicle)
MIP-1α; Conc. 2000.0 μM
  % MIP-1α (Vehicle + LPS = 100%): ++ (++ = <70% Vehicle)

— patent US20210299079A1, “MONOMETHYL FUMARATE-CARRIER CONJUGATES AND METHODS OF THEIR USE” (Flagship Pioneering Innovations V, Inc., priority 2018, published 2021)
